Measured values: publication PMC9728921, “Characterization of a KDM5 small molecule inhibitor with antiviral activity against hepatitis B virus” (PLOS ONE, 2022)

Columns and labels:
[1] = Cytotoxicity CC50, MRC-5; assay type: cell-based; settings: human, MRC-5 cells (embryonal lung fibroblasts)
Excerpt: (§1) a Values represent the geometric mean and multiplicative standard deviation of 3 – 5 primary human hepatocyte (PHH) donors or 5 – 10 independent experiments.
(§2) b MT-4: human T-lymphoblastoid cell line; PBMC: peripheral blood mononuclear cell; Gal-HepG2: galactose adapted human hepatoblastoma cell line; Huh-7: human hepatoma cell line; Gal-PC3: galactose adapted human prostate carcinoma cell line; MRC-5: Medical Research Council 5 embryonal lung fibroblast; NRVM: neonatal rat ventricular cardiomyocytes

[2] = Cytotoxicity CC50, MT-4; assay type: cell-based; settings: human, MT-4 cells (T-lymphoblastoid cell line)
Excerpt: as §1, §2

[3] = Cytotoxicity CC50, NRVM; assay type: cell-based; settings: rat, NRVM (neonatal rat ventricular cardiomyocytes)
Excerpt: as §1, §2

[4] = Cytotoxicity CC50, Gal-PC3; assay type: cell-based; settings: human
Excerpt: as §1, §2

[5] = system: HBV; experiment: Secreted HBeAg by immunoassay in HBV-infected PHH; assay type: cell-based; settings: Hepatitis B virus
Procedure: (§3) Approximately 24 hours after plating, PHH were infected with HepAD38-derived GTD virus at 500 viral genome equivalents per cell in maintenance medium supplemented with 4% PEG 8000 (Promega, Madison, WI; V3011). For patient sera infections, PHH were infected with 6 μl of patient sera in maintenance medium supplemented with 4% PEG 8000. Infections were allowed to proceed for 20–24 hours before removing remaining extracellular virions by washing with maintenance medium three times. […]
(§4) Hepatitis B e antigen (HBeAg) and Hepatitis B surface antigen (HBsAg) were detected in culture media at the indicated time by ELISA or electrochemiluminescence assay (MSD). The HBeAg and HBsAg ELISAs were performed using the HBeAg ELISA kit (International Immuno-Diagnostics, Foster City, CA) and HBsAg ETI-MAK-2 plus kit (DiaSorin, Stillwater, MN), respectively according to the manufacturer’s instructions. Concentrations were calculated by interpolation from standard curves with purified HBeAg and HBsAg. The MSD assay was performed according to the manufacturer’s instructions (Meso Scale Diagnostics, Rockville, MD). Briefly, cultured supernatants were inactivated with 0.5% Triton X-100 (30 minutes at 37°C) and then transferred into plates pre-spotted with both an anti-HBeAg antibody (Genway Bio, San Diego, CA) and a custom anti-HBsAg antibody. The plates were then incubated for two hours at room temperature with gentle shaking, followed by a wash step in PBS with 0.5% Tween. MSD sulfate tags anti-A and anti-B (1 μg/mL each) were then added to the wells and the plates incubated for a further two hours at room temperature with gentle shaking, followed by another wash step in PBS with 0.5% Tween. A 2X solution of MSD T Buffer Read was then added and the plate was read on a Sector Imager 6000 plate scanner.
(§5) Antiviral activity of test compounds was determined from vRNA, vDNA, HBeAg, and HBsAg data by comparing compound-treated PHH to DMSO (vehicle)-treated PHH to generate a percent of DMSO control value (% DMSO control). The % DMSO control was calculated by the following equation: %DMSOControl=100xXc/XD where Xc is the signal from the compound-treated PHH and XD is the signal from the DMSO-treated PHH. The % DMSO control for vRNA, vDNA, HBeAg, HBsAg, GAPDH, or RPLP0 was plotted versus the log of each compound concentration in GraphPad Prism (version 6; Graphpad Software, LaJolla, CA) to generate dose-response curves. […] Dose-response curves were fitted using the nonlinear regression equation “log(agonist) versus response–variable slope (four parameters)” in GraphPad Prism to determine EC50 values.

[6] = system: HBV; experiment: Secreted HBsAg by immunoassay in HBV-infected PHH; assay type: cell-based; settings: Hepatitis B virus
Procedure: as §3, §4, §5

[7] = system: HBV; experiment: Intracellular HBV RNA (vRNA) by qRT-PCR in HBV-infected PHH; assay type: cell-based; settings: Hepatitis B virus
Procedure: as §3
Intracellular HBV viral RNA was isolated from PHH using the RNeasy 96 kit (Qiagen, 74182) following the manufacturer’s recommended protocol. Briefly, 125 μl of Qiagen RLT lysis buffer was added to PHH. The PHH lysate was then thoroughly mixed with 125 μl of 70% ethanol, transferred into a RNeasy 96 well plate, and placed onto a vacuum manifold (Qiagen; 19504). The plate was washed using RW1 and RPE buffers, followed by centrifugation (Sigma-Aldrich, Model 4-16S) at 6000 rpm for 2 minutes. The RNA was then eluted twice with 60 μl of nuclease free water for a total of 120 μl RNA.
After elution, DNase digestion by Turbo DNase (Thermo Fisher Scientific; AM2239) was performed to remove any contaminating DNA. After 30 minutes of DNase treatment at 37°C, Turbo DNase was inactivated by adding 15 mM of EDTA and heating the reaction to 75°C for 10 minutes in a thermo cycler (Thermo Fisher Scientific; Veriti 96 Well Thermal Cycler).
GAPDH or RPLP0 mRNA expression was used to normalize target gene expression. Levels of HBV RNA for all donors were calculated as fold change relative to no drug treated sample using the 2-ΔΔCt method.
as §5

[8] = Cytotoxicity in HBV-infected PHH (50% decrease in GAPDH or RPLP0); assay type: cell-based, human; settings: human, HBV-infected primary human hepatocytes (PHH); for CC50 at 14 days: PHH donor Hu8181, treated every three to four days for 14 days
[9] = system: PHH; experiment: as above; assay type: cell-based, human; settings: treated every three to four days for 14 days
[10] = read-out: HBeAg EC50, PHH donor BCD, HBV GTD, treated every three to four days for 14 days
[11] = read-out: HBeAg EC50, PHH donor Hu276, HBV GTD, treated every three to four days for 14 days
[12] = read-out: HBeAg EC50, PHH donor Hu349, HBV GTD, treated every three to four days for 14 days
[13] = read-out: HBeAg EC50, PHH donor Hu4167, HBV GTD, treated every three to four days for 14 days
[14] = read-out: HBeAg EC50, PHH donor Hu7272, HBV GTD, treated every three to four days for 14 days
[15] = read-out: HBeAg EC50, PHH donor Hu8130, HBV GTD, treated every three to four days for 14 days
[16] = read-out: HBeAg EC50, PHH donor Hu8181, HBV GTD, treated every three to four days for 14 days
[17] = read-out: HBsAg EC50, PHH donor BCD, HBV GTD, treated every three to four days for 14 days
[18] = read-out: HBsAg EC50, PHH donor Hu276, HBV GTD, treated every three to four days for 14 days
[19] = read-out: HBsAg EC50, PHH donor Hu349, HBV GTD, treated every three to four days for 14 days
[20] = read-out: HBsAg EC50, PHH donor Hu4167, HBV GTD, treated every three to four days for 14 days
[21] = read-out: HBsAg EC50, PHH donor Hu7272, HBV GTD, treated every three to four days for 14 days
[22] = read-out: HBsAg EC50, PHH donor Hu8130, HBV GTD, treated every three to four days for 14 days
[23] = read-out: HBsAg EC50, PHH donor Hu8181, HBV GTD, treated every three to four days for 14 days
[24] = read-out: vRNA EC50, PHH donor BCD, HBV GTD, treated every three to four days for 14 days
[25] = read-out: vRNA EC50, PHH donor Hu276, HBV GTD, treated every three to four days for 14 days
[26] = read-out: vRNA EC50, PHH donor Hu349, HBV GTD, treated every three to four days for 14 days
[27] = read-out: vRNA EC50, PHH donor Hu4167, HBV GTD, treated every three to four days for 14 days
[28] = read-out: vRNA EC50, PHH donor Hu7272, HBV GTD, treated every three to four days for 14 days
[29] = read-out: vRNA EC50, PHH donor Hu8130, HBV GTD, treated every three to four days for 14 days
[30] = read-out: vRNA EC50, PHH donor Hu8181, HBV GTD, treated every three to four days for 14 days

SMILES: CCN(CCN(C)C)C(=O)CNCc1cc(C(=O)O)ccn1 [GS-080]
- CC50 [1]: > 44000 nM
- CC50 [2]: > 57000 nM
- CC50 [3]: > 44000 nM
- CC50 [4]: > 44000 nM

SMILES: CCOC(=O)c1cc(CNCC(=O)N(CC)CCN(C)C)ncc1Br [GS-420]
- EC50 [5, 10]: > 10000 nM
- EC50 [5, 11]: > 10000 nM
- EC50 [5, 12]: > 10000 nM
- EC50 [5, 13]: > 10000 nM
- EC50 [5, 14]: > 10000 nM
- EC50 [5, 15]: > 10000 nM
- EC50 [5, 16]: > 10000 nM
- EC50 [6, 17]: > 10000 nM
- EC50 [6, 18]: > 10000 nM
- EC50 [6, 19]: > 10000 nM
- EC50 [6, 20]: > 10000 nM
- EC50 [6, 21]: > 10000 nM
- EC50 [6, 22]: > 10000 nM
- EC50 [6, 23]: > 10000 nM
- EC50 [7, 24]: > 10000 nM
- EC50 [7, 25]: > 10000 nM
- EC50 [7, 26]: > 10000 nM
- EC50 [7, 27]: > 10000 nM
- EC50 [7, 28]: > 10000 nM
- EC50 [7, 29]: > 10000 nM
- EC50 [7, 30]: > 10000 nM
- CC50 at 14 days [8]: > 10000 nM
- CC50 ([9]; PHH donor Hu276): > 10000 nM
- CC50 ([9]; PHH donor Hu349): > 10000 nM
- CC50 ([9]; PHH donor Hu4167): > 10000 nM
- CC50 ([9]; PHH donor Hu7272): > 10000 nM
- CC50 ([9]; PHH donor Hu8130): > 10000 nM
- CC50 ([9]; PHH donor): > 10000 nM

SMILES: CCOC(=O)c1ccnc(CNCC(=O)N(CC)CCN(C)C)c1 [GS-5801]
- CC50 [1]: > 44000 nM
- EC50 ([5]; 336 h, read-out: EC50 range across genotypes, secreted HBeAg, range across genotypes, 14 days of dosing): 300 to 1400 nM
- EC50 ([5]; 336 h, read-out: EC50 range for secreted HBeAg, range over the seven PHH donors tested, HBV GTD, Day 14): 14 to 1100 nM
- EC50 [5, 10]: 14 nM
- EC50 [5, 11]: 100 nM
- EC50 [5, 12]: 380 nM
- EC50 [5, 13]: 150 nM
- EC50 [5, 14]: 610 nM
- EC50 [5, 15]: 1100 nM
- EC50 [5, 16]: 110 nM
- EC50 ([5]; read-out: HBeAg EC50, PHH infected with HBV GTA, treated every three to four days for 13 days): 1100 nM
- EC50 ([5]; read-out: HBeAg EC50, PHH infected with HBV GTD, treated every three to four days for 13 days (Table 3)): 300 nM
- EC50 ([5]; read-out: HBeAg EC50, PHH infected with HBV GTE, treated every three to four days for 13 days): 1400 nM
- EC50 ([6]; 336 h, read-out: EC50, secreted HBsAg, across HBV genotypes (summary value), 14 days of dosing): 170 nM
- EC50 ([6]; 336 h, read-out: EC50 range across genotypes, secreted HBsAg, range across genotypes, 14 days of dosing): 36 to 3100 nM
- EC50 ([6]; 336 h, read-out: EC50 range for secreted HBsAg, range over the seven PHH donors tested, HBV GTD, Day 14): 15 to 1700 nM
- EC50 [6, 17]: 15 nM
- EC50 [6, 18]: 150 nM
- EC50 [6, 19]: 970 nM
- EC50 [6, 20]: 240 nM
- EC50 [6, 21]: 5100 nM
- EC50 [6, 22]: 1700 nM
- EC50 [6, 23]: 61 nM
- EC50 ([6]; read-out: HBsAg EC50, PHH infected with HBV GTA, treated every three to four days for 13 days): 36 nM
- EC50 ([6]; read-out: HBsAg EC50, PHH infected with HBV GTC, treated every three to four days for 13 days): 120 nM
- EC50 ([6]; read-out: HBsAg EC50, PHH infected with HBV GTD, treated every three to four days for 13 days (Table 3)): 220 nM
- EC50 ([6]; read-out: HBsAg EC50, PHH infected with HBV GTE, treated every three to four days for 13 days): 3100 nM
- CC50 [2]: 51000 ± 1200 nM
- CC50 [3]: > 44000 nM
- CC50 [4]: > 44000 nM
- EC50 ([7]; 336 h, read-out: EC50 range across genotypes, intracellular HBV RNA, range across genotypes, 14 days of dosing): 51 to 2700 nM
- EC50 ([7]; 336 h, read-out: EC50 range for intracellular RNA, range over the seven PHH donors tested, HBV GTD, Day 14): 34 to 1100 nM
- EC50 [7, 24]: 34 nM
- EC50 [7, 25]: 42 nM
- EC50 [7, 26]: 430 nM
- EC50 [7, 27]: 47 nM
- EC50 [7, 28]: 930 nM
- EC50 [7, 29]: 1100 nM
- EC50 [7, 30]: 160 nM
- EC50 ([7]; read-out: vRNA EC50, PHH infected with HBV GTA, treated every three to four days for 13 days): 1800 nM
- EC50 ([7]; read-out: vRNA EC50, PHH infected with HBV GTC, treated every three to four days for 13 days): 51 nM
- EC50 ([7]; read-out: vRNA EC50, PHH infected with HBV GTD, treated every three to four days for 13 days (Table 3)): 430 nM
- EC50 ([7]; read-out: vRNA EC50, PHH infected with HBV GTE, treated every three to four days for 13 days): 2700 nM
- CC50 at 14 days [8]: > 10000 nM
- CC50 ([8]; the seven PHH donors tested): > 10000 nM
- CC50 ([9]; PHH donor Hu276): > 10000 nM
- CC50 ([9]; PHH donor Hu349): > 10000 nM
- CC50 ([9]; PHH donor Hu4167): > 10000 nM
- CC50 ([9]; PHH donor Hu7272): > 10000 nM
- CC50 ([9]; PHH donor Hu8130): > 10000 nM
- CC50 ([9]; PHH donor): > 10000 nM
